Results reported in BindingDB's records for doi:10.1021/acs.jmedchem.8b01200 (Fuji Research Park, R&D Division, 2018).

Test: Agonist activity at PPARgamma in human MKN45 cells assessed as cell differentiation after 5 days by Hoechst 33342 staining-based assay

EC50: > 500 nM
Structure (SMILES): CCCCCS(=O)(=O)NC(=O)c1ccc2nc(C)n(Cc3ccc(Cl)cc3Cl)c2c1 [ATx08-001]
